# Legend:
# [1] = test system: Aspartate Aminotransferase; experiment: AST levels in PALACE 1, 2, and 3 clinical studies; assay type: in vivo, human
# Source text: Apremilast was studied in Phase 3 trials in both psoriatic arthritis and psoriasis patient populations and a Phase 2 trial in rheumatoid arthritis patients on background methotrexate. […] The improvement in mild baseline liver function test abnormalities has been observed with apremilast daily use without any prescribed changes in physical activity, social or dietary habits. The majority of the patient populations in both the psoriatic arthritis and psoriasis studies were overweight with the mean BMI for subjects greater than or equal to 30, more than half were consuming alcoholic beverages regularly, approximately 60% were taking methotrexate at an average dose of […], and 70% were using non-steroidal anti-inflammatory drugs (NSAIDs). […] During the course of the study, there was observed a higher proportion of subjects in the apremilast treatment groups (both 20 mg BID and 30 mg BID) with normal LFTs (i.e. normal levels of ALT and AST) at subsequent placebo-controlled study visits at week 4, week 16, and week 24 (See Tables 1 to 10 from PALACE 1, 2, and 3 studies).
# PDE2 = PDE2 (Homo sapiens, UniProt O00408); experiment: PDE2 enzyme assay; assay type: biochemical
# PDE2, sequence (O00408 whole entry): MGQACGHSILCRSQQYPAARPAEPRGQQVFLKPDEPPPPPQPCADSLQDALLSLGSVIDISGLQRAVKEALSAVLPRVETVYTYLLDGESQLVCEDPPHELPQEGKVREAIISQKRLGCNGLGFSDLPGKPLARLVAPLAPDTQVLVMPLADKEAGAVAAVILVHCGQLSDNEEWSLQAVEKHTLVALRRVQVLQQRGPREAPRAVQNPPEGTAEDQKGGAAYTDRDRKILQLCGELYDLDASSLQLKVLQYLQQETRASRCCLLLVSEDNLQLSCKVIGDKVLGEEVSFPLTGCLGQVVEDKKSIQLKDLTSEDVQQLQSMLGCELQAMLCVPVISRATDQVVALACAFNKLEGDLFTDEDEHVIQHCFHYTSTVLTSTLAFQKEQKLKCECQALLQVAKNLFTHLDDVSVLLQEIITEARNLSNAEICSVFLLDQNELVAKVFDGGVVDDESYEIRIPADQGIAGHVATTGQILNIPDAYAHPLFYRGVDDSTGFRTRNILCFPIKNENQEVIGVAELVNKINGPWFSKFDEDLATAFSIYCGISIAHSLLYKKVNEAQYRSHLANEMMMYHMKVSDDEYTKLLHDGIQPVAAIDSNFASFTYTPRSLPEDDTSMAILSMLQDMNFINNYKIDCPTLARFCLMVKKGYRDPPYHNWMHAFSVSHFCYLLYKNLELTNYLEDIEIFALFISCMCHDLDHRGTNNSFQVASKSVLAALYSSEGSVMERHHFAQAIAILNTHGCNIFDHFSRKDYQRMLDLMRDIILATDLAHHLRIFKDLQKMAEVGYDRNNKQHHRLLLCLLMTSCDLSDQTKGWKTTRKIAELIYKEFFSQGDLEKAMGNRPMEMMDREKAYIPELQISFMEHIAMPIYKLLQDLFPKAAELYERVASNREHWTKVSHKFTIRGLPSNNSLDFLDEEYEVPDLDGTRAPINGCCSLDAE
# Procedure: PDE1, 2, 3 and 5 enzyme assays were prepared as described by Hidaka and Asano. Biochem. Biophys. Acta., 1976, 429:485; see also Nicholsen et al., Trends Pharmaco. Sci., 1991, 12:19. The PDE6 enzyme assay was prepared according to Baehr et al., J. Biol. Chem., 1979, 254:11669 and Gillespie et al., Mol. Pharm., 1989, 36: 773. The PDE7 enzyme assay was prepared according to Bloom and Beavo. Proc. Natl. Acad. Sci. USA, 1996, 93:14188-92.
# PDE4 = PDE4 enzyme inhibition (enzyme purified from U937 human monocytic cells); assay type: biochemical; settings: 1 μM cAMP, 45 min at 30° C.
# Procedure: Phosphodiesterase 4 enzyme was purified from U937 human monocytic cells by gel filtration chromatography, and phosphodiesterase reactions were carried out as previously described. See Muller et al., Bioorg. Med. Chem. Lett., 1998, 8(19): 2669-2674. Briefly, reactions were carried out in 96-well deep-well plates in 50 mM Tris HCl pH 7.5, 5 mM MgCl2, 1 μM cyclic adenosine monophosphate (cAMP), plus 10 nM [3H]-cAMP for 45 min at 30° C. The reactions were terminated by boiling, treated with 1 mg/ml snake venom, and separated using AG-1X8 ion exchange resin (BioRad). Reactions consumed less than 15% of available substrate.
# Alanine Aminotransferase = experiment: ALT levels in PSA-005 (psoriatic arthritis); assay type: in vivo, human; settings: for ALT High to Normal, percent of patients / ALT Net Benefit / ALT Normal to High, percent of patients: end of treatment (week 24)
# Source text: Apremilast was studied in a Phase 3 trial in patients with active psoriatic arthritis who have not been previously treated with disease-modifying antirheumatic drugs. […] The improvement in mild baseline liver function test abnormalities has been observed with apremilast daily use without any prescribed changes in physical activity, social or dietary habits. […] See Tables 25 to 34 from PSA-005 studies.
# [2] = Baseline High, Week 24, 20 mg BID
# [3] = Baseline High, Week 24, 30 mg BID
# [4] = Baseline Normal, Week 24, 20 mg BID
# [5] = Baseline Normal, Week 24, 30 mg BID
# [6] = Baseline Total, Week 24, 20 mg BID
# [7] = Baseline Total, Week 24, 30 mg BID
structure (smiles),measurement,setting,value
"CCOc1cc([C@@H](CS(C)(=O)=O)N2C(=O)c3cccc(NC(C)=O)c3C2=O)ccc1OC [Apremilast, (+)-2-[1-(3-ethoxy-4-methoxyphenyl)-2-methylsulfonylethyl]-4-acetylaminoisoindoline-1,3-dione]","AST High to Normal, percent of patients","[1]; 20 BID, end of treatment",60.9%
same,AST Net Benefit,"[1]; 20 BID, end of treatment",32.6%
same,"AST Normal to High, percent of patients","[1]; 20 BID, end of treatment",5.0%
same,"AST High to Normal, Difference between Placebo and APR 30 BID","[1]; 30 BID, end of treatment",13.3%
same,"AST High to Normal, percent of patients","[1]; 30 BID, end of treatment",73.3%
same,AST Net Benefit,"[1]; 30 BID, end of treatment",48.9%
same,"AST Net Benefit, Difference between Placebo and APR 30 BID","[1]; 30 BID, end of treatment",23.9%
same,"AST Normal to High, Difference between Placebo and APR 30 BID","[1]; 30 BID, end of treatment",−6.4%
same,"AST Normal to High, percent of patients","[1]; 30 BID, end of treatment",3.8%
same,"AST High, % of patients",[1]; [2],39.1%
same,"AST Low, % of patients",[1]; [2],0.0%
same,"AST Normal, % of patients",[1]; [2],60.9%
same,"AST High, % of patients",[1]; [3],26.7%
same,"AST Low, % of patients",[1]; [3],0.0%
same,"AST Normal, % of patients",[1]; [3],73.3%
same,"AST High, % of patients",[1]; [4],5.0%
same,"AST Low, % of patients",[1]; [4],0.0%
same,"AST Normal, % of patients",[1]; [4],95.0%
same,"AST High, % of patients",[1]; [5],3.8%
same,"AST Low, % of patients",[1]; [5],0.0%
same,"AST Normal, % of patients",[1]; [5],96.2%
same,"AST High, % of patients",[1]; [6],6.8%
same,"AST Low, % of patients",[1]; [6],0.0%
same,"AST Normal, % of patients",[1]; [6],93.2%
same,"AST High, % of patients",[1]; [7],5.4%
same,"AST Low, % of patients",[1]; [7],0.0%
same,"AST Normal, % of patients",[1]; [7],94.6%
same,Baseline High AST: High %,"[1]; Week 4, 20 mg BID",38.6%
same,Baseline High AST: Normal %,"[1]; Week 4, 20 mg BID",61.4%
same,Baseline High AST: Normal % difference from Placebo,"[1]; Week 4, 20 mg BID",9%
same,Baseline High AST: High %,"[1]; Week 4, 30 mg BID",42.2%
same,Baseline High AST: Normal %,"[1]; Week 4, 30 mg BID",57.8%
same,Baseline High AST: Normal % difference from Placebo,"[1]; Week 4, 30 mg BID",5.4%
same,Baseline High AST: High %,"[1]; Week 16, 20 mg BID",38.5%
same,Baseline High AST: Normal %,"[1]; Week 16, 20 mg BID",61.5%
same,Baseline High AST: Normal % difference from Placebo,"[1]; Week 16, 20 mg BID",−4.3%
same,decrease in the number of patients with normal levels of AST compared to the placebo group,"[1]; Week 16, 20 mg BID, stated as a decrease",4.3%
same,Baseline High AST: High %,"[1]; Week 16, 30 mg BID",25.0%
same,Baseline High AST: Normal %,"[1]; Week 16, 30 mg BID",75.0%
same,Baseline High AST: Normal % difference from Placebo,"[1]; Week 16, 30 mg BID",9.2%
same,Baseline High AST: High %,"[1]; Week 24, 20 mg BID",44.4%
same,Baseline High AST: Normal %,"[1]; Week 24, 20 mg BID",55.6%
same,Baseline High AST: Normal % difference from Placebo,"[1]; Week 24, 20 mg BID",5.6%
same,Baseline High AST: High %,"[1]; Week 24, 30 mg BID",24.2%
same,Baseline High AST: Normal %,"[1]; Week 24, 30 mg BID",75.8%
same,Baseline High AST: Normal % difference from Placebo,"[1]; Week 24, 30 mg BID",25.8%
same,inhibition at 10 µM,PDE2,6%
same,IC50,PDE4,73.5 nM
same,"ALT High to Normal, percent of patients",Alanine Aminotransferase; 20 BID,87.5%
same,ALT Net Benefit,Alanine Aminotransferase; 20 BID,53.8%
same,"ALT Normal to High, percent of patients",Alanine Aminotransferase; 20 BID,3.3%
same,"ALT High to Normal, percent of patients",Alanine Aminotransferase; 30 BID,72.7%
same,ALT Net Benefit,Alanine Aminotransferase; 30 BID,44.4%
same,"ALT Normal to High, percent of patients",Alanine Aminotransferase; 30 BID,4.9%
same,"ALT High to Normal, Difference between Placebo and APR 30 BID","Alanine Aminotransferase; 30 BID, week 24",22.7%
same,"ALT Net Benefit, Difference between Placebo and APR 30 BID","Alanine Aminotransferase; 30 BID, week 24",24.4%
same,"ALT Normal to High, Difference between Placebo and APR 30 BID","Alanine Aminotransferase; 30 BID, week 24",−1.0%
same,"ALT High to Normal, Difference between Placebo and APR 30 BID","Alanine Aminotransferase; 30 BID, week 24, listed as APR",22.7%
same,"ALT High, % of patients",Alanine Aminotransferase; [2],12.5%
same,"ALT Low, % of patients",Alanine Aminotransferase; [2],0.0%
same,"ALT Normal, % of patients",Alanine Aminotransferase; [2],87.5%
same,"ALT High, % of patients",Alanine Aminotransferase; [3],27.3%
same,"ALT Low, % of patients",Alanine Aminotransferase; [3],0.0%
same,"ALT Normal, % of patients",Alanine Aminotransferase; [3],72.7%
same,"ALT High, % of patients",Alanine Aminotransferase; [4],3.3%
same,"ALT Low, % of patients",Alanine Aminotransferase; [4],0.0%
same,"ALT Normal, % of patients",Alanine Aminotransferase; [4],96.7%
same,"ALT High, % of patients",Alanine Aminotransferase; [5],4.9%
same,"ALT Low, % of patients",Alanine Aminotransferase; [5],0.0%
same,"ALT Normal, % of patients",Alanine Aminotransferase; [5],95.1%
same,"ALT High, % of patients",Alanine Aminotransferase; [6],3.8%
same,"ALT Low, % of patients",Alanine Aminotransferase; [6],0.0%
same,"ALT Normal, % of patients",Alanine Aminotransferase; [6],96.2%
same,"ALT High, % of patients",Alanine Aminotransferase; [7],6.5%
same,"ALT Low, % of patients",Alanine Aminotransferase; [7],0.0%
same,"ALT Normal, % of patients",Alanine Aminotransferase; [7],93.5%
same,Baseline High ALT: High %,"Alanine Aminotransferase; Week 4, 20 mg BID",30.0%
same,Baseline High ALT: Normal %,"Alanine Aminotransferase; Week 4, 20 mg BID",70.0%
same,Baseline High ALT: High %,"Alanine Aminotransferase; Week 4, 30 mg BID",72.7%
same,Baseline High ALT: Normal %,"Alanine Aminotransferase; Week 4, 30 mg BID",27.3%
same,Baseline High ALT: High %,"Alanine Aminotransferase; Week 16, 20 mg BID",12.5%
same,Baseline High ALT: Normal %,"Alanine Aminotransferase; Week 16, 20 mg BID",87.5%
same,Baseline High ALT: High %,"Alanine Aminotransferase; Week 16, 30 mg BID",36.4%
same,Baseline High ALT: Normal %,"Alanine Aminotransferase; Week 16, 30 mg BID",63.6%
same,Baseline High ALT: High %,"Alanine Aminotransferase; Week 24, 20 mg BID",12.5%
same,Baseline High ALT: Normal %,"Alanine Aminotransferase; Week 24, 20 mg BID",87.5%
same,Baseline High ALT: High %,"Alanine Aminotransferase; Week 24, 30 mg BID",27.3%
same,Baseline High ALT: Normal %,"Alanine Aminotransferase; Week 24, 30 mg BID",72.7%

# From US10300042B2, “Apremilast for the treatment of a liver disease or a liver function abnormality” (Celgene Corporation, priority 2014, dated 2019)
